Source: patent US20250228239A1, “MOLECULES HAVING PESTICIDAL UTILITY, AND INTERMEDIATES, COMPOSITIONS, AND PROCESSES, RELATED THERETO” (priority 2024, published 2025)
Where two headings read alike, the source gives them in different places.

Key:
Type in all cases: in vivo
[1] = system: Beet Armyworm (Spodoptera exigua, LAPHEG); assay: Bioassays on Beet Armyworm (BAW), 128-well diet tray assay; settings: Spodoptera exigua
Outline: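 Larvae at second instar are exposed on dried, compound-treated diet (50 μg/cm^2, delivered in 90:10 acetone-water) in eight replicate wells. After five to seven days at 25° C., 14:10 light-dark, percent mortality in each well is scored and the eight wells averaged.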

[2] = system: Cabbage Looper (Trichoplusia ni, TRIPNI); assay: Bioassays on Cabbage Looper (CL), 128-well diet tray assay; settings: Trichoplusia ni
Outline: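 Percent mortality, averaged across eight replicate wells, after second-instar larvae (1–5 per well) fed for five to seven days on diet dosed at 50 μg/cm^2. Compound was applied in acetone-water 90:10 and dried; trays kept vented at 25° C under 14:10 photoperiod.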

[3] = system: Yellow Fever Mosquito (Aedes aegypti, AEDSAE); settings: for YFM rating: Table ABC / ABC-DP rating
Outline: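 Compounds from DMSO master plates (4000 ppm stock) diluted in 90:10 water/acetone, then dispensed into six replicate plates and infested with ~1-day-old Aedes aegypti larvae in liver-powder water. Held covered at room temperature for 3 days; each well scored for larval mortality and graded on a rating scale.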

[4] = Table ABC: Biological Results, species BAW, read-out: BAW
[5] = Table ABC: Biological Results, species CL, read-out: CL
[6] = Table ABC: Biological Results, species YFM
[7] = Beet Armyworm, rating class, read-out: BAW
[8] = Cabbage Looper, rating class, read-out: CL
[9] = Yellow Fever Mosquito, rating class
[10] = Beet Armyworm, Table ABC / ABC-DP rating, read-out: BAW rating
[11] = Cabbage Looper, Table ABC / ABC-DP rating, read-out: CL rating

| SMILES | pest or weed control at 50 µg/cm2 [1, 7] [%] | pest or weed control at 50 µg/cm2 [2, 8] [%] | YFM [3, 9] | other results |
| --- | --- | --- | --- | --- |
| O=C(Nc1ccc(F)cc1F)c1cc(NC(=O)[C@H]2[C@H](c3cc(Cl)cc(C(F)(F)F)c3)C2(Cl)Cl)ccc1Cl (relative stereo) [F1118, trans-2-Chloro-5-(2,2-dichloro-3-(3-chloro-5-(trifluoromethyl)phenyl)cyclopropane-1-carboxamido)-N-(2,4-difluorophenyl)benzamide] | – | – | – | pest or weed control at 50 µg/cm2 [1, 4]: 50 to 100%; pest or weed control at 50 µg/cm2 [2, 5]: 50 to 100%; YFM [3, 6]: A (80–100) |
| Nc1ccc(F)c(NC(=O)c2cc(NC(=O)[C@H]3[C@H](c4cc(Cl)cc(Cl)c4)C3(Cl)Cl)ccc2Cl)c1F (relative stereo) [F1026, trans-N-(3-Amino-2,6-difluorophenyl)-2-chloro-5-(2,2-dichloro-3-(3,5-dichlorophenyl)cyclopropane-1-carboxamido)benzamide] | – | – | – | pest or weed control at 50 µg/cm2 [1, 4]: 50 to 100%; pest or weed control at 50 µg/cm2 [2, 5]: 50 to 100%; YFM [3, 6]: A (80–100) |
| Cc1c(N)ccc(Br)c1NC(=O)c1cc(NC(=O)[C@H]2[C@H](c3ccc(F)c(C(F)(F)F)c3)C2(Cl)Cl)ccc1Cl [F1684, N-(3-Amino-6-bromo-2-methylphenyl)-2-chloro-5-((1R,3R)-2,2-dichloro-3-(4-fluoro-3-(trifluoromethyl)phenyl)cyclopropane-1-carboxamido)benzamide] | 50 to 100 | 50 to 100 | B (More than 0 – Less than 80) | – |
| O=C(Nc1ccc(F)c(NC(=O)C2CC2(F)F)c1F)c1cc(NC(=O)[C@H]2[C@H](c3ccc(Cl)c(Cl)c3)C2(Cl)Cl)ccc1Cl (stereo partly drawn) [F1608, 2-Chloro-5-((1R,3R)-2,2-dichloro-3-(3,4-dichlorophenyl)cyclopropane-1-carboxamido)-N-(3-(2,2-difluorocyclopropane-1-carboxamido)-2,4-difluorophenyl)benzamide] | 50 to 100 | 50 to 100 | A (80–100) | – |
| Cc1cc(NC(=O)[C@H]2[C@H](c3ccc(F)c(Cl)c3)C2(Cl)Cl)cc(C(=O)NCCCCl)c1F (relative stereo) [F2032, trans-N-(3-Chloropropyl)-5-(2,2-dichloro-3-(3-chloro-4-fluorophenyl)-cyclopropane-1-carboxamido)-2-fluoro-3-methylbenzamide] | – | – | – | pest or weed control at 50 µg/cm2 [1, 10]: 50 to 100%; pest or weed control at 50 µg/cm2 [2, 11]: 50 to 100%; YFM rating ([3]; Yellow Fever Mosquito): A (80–100) |
| O=C(Nc1ccc(F)c(NC(=O)C2CC(F)(F)C2(F)F)c1F)c1cc(NC(=O)[C@H]2[C@H](c3ccc(F)c(C(F)(F)F)c3)C2(Cl)Cl)ccc1Cl (stereo partly drawn) [F1481, 2-Chloro-5-((1R,3R)-2,2-dichloro-3-(4-fluoro-3-(trifluoromethyl)phenyl)cyclopropane-1-carboxamido)-N-(2,4-difluoro-3-(2,2,3,3-tetrafluorocyclobutane-1-carboxamido)phenyl)benzamide] | 50 to 100 | 50 to 100 | A (80–100) | – |
| Nc1c(F)ccc(NC(=O)c2cc(NC(=O)[C@H]3[C@H](c4ccc(I)cc4)C3(Cl)Cl)ccc2Cl)c1F (relative stereo) [F1140, trans-N-(3-Amino-2,4-difluorophenyl)-2-chloro-5-(2,2-dichloro-3-(4-iodophenyl)cyclopropane-1-carboxamido)benzamide] | – | – | – | pest or weed control at 50 µg/cm2 [1, 4]: 50 to 100%; pest or weed control at 50 µg/cm2 [2, 5]: 50 to 100%; YFM [3, 6]: A (80–100) |
| O=C(CCCNC(=O)c1cc(NC(=O)[C@H]2[C@H](c3cc(Cl)cc(Cl)c3)C2(Cl)Cl)ccc1Cl)NCCC(F)(F)F (relative stereo) [F2093, trans-2-Chloro-5-(2,2-dichloro-3-(3,5-dichlorophenyl)cyclopropanecarboxamido)-N-(4-oxo-4-(3,3,3-trifluoropropylamino)butyl)benzamide] | – | – | – | pest or weed control at 50 µg/cm2 [1, 10]: 50 to 100%; pest or weed control at 50 µg/cm2 [2, 11]: 50 to 100%; YFM rating ([3]; Yellow Fever Mosquito): B (More than 0 – Less than 80) |
| O=C(Nc1ccc(F)cc1F)c1cc(NC(=O)[C@H]2[C@H](c3ccc(F)c(C(F)(F)F)c3)C2(Cl)Cl)c(F)cc1Cl [F1727, 2-Chloro-5-((1R,3R)-2,2-dichloro-3-(4-fluoro-3-(trifluoromethyl)phenyl)cyclopropane-1-carboxamido)-N-(2,4-difluorophenyl)-4-fluorobenzamide] | 50 to 100 | 50 to 100 | A (80–100) | – |
| O=C(Nc1c(F)ccc(NC(=O)C(F)F)c1F)c1cc(NC(=O)[C@H]2[C@H](c3ccc(F)c(C(F)(F)F)c3)C2(Cl)Cl)ccc1F [F1561, 5-((1R,3R)-2,2-Dichloro-3-(4-fluoro-3-(trifluoromethyl)phenyl)cyclopropane-1-carboxamido)-N-(3-(2,2-difluoroacetamido)-2,6-difluorophenyl)-2-fluorobenzamide] | 50 to 100 | 50 to 100 | A (80–100) | – |
| Nc1c(F)ccc(NC(=O)c2cc(NC(=O)[C@H]3[C@H](c4cc(Br)cc(C(F)(F)F)c4)C3(Cl)Cl)ccc2Cl)c1F (relative stereo) [F1075, trans-N-(3-Amino-2,4-difluorophenyl)-5-(3-(3-bromo-5-(trifluoromethyl)phenyl)-2,2-dichlorocyclopropane-1-carboxamido)-2-chlorobenzamide] | – | – | – | pest or weed control at 50 µg/cm2 [1, 4]: 50 to 100%; pest or weed control at 50 µg/cm2 [2, 5]: 50 to 100%; YFM [3, 6]: A (80–100) |
| COCC(=O)Nc1c(F)ccc(NC(=O)c2cc(NC(=O)[C@H]3[C@H](c4cc(Cl)c(Cl)c(Cl)c4)C3(Cl)Cl)ccc2Cl)c1F [F1646, 2-Chloro-5-((1R,3R)-2,2-dichloro-3-(3,4,5-trichlorophenyl)cyclopropane-1-carboxamido)-N-(2,4-difluoro-3-(2-methoxyacetamido)phenyl)benzamide] | 50 to 100 | 50 to 100 | A (80–100) | – |
| CO[C@H](C)C(=O)Nc1c(F)ccc(NC(=O)c2cc(NC(=O)[C@H]3[C@H](c4ccc(F)c(C(F)(F)F)c4)C3(Cl)Cl)ccc2Cl)c1F [F1689, 2-Chloro-5-((1R,3R)-2,2-dichloro-3-(4-fluoro-3-(trifluoromethyl)phenyl)cyclopropane-1-carboxamido)-N-(2,4-difluoro-3-((R)-2-methoxypropanamido)phenyl)benzamide] | 50 to 100 | 50 to 100 | B (More than 0 – Less than 80) | – |
| O=C(CC1CC1)Nc1c(F)ccc(NC(=O)c2cc(NC(=O)[C@H]3[C@H](c4cc(Cl)c(Cl)c(Cl)c4)C3(Cl)Cl)ccc2Cl)c1F [F1653, 2-Chloro-N-(3-(2-cyclopropylacetamido)-2,4-difluorophenyl)-5-((1R,3R)-2,2-dichloro-3-(3,4,5-trichlorophenyl)cyclopropane-1-carboxamido)benzamide] | 50 to 100 | 50 to 100 | A (80–100) | – |
